A short description of data set [1]: Solubility of compound in water at 25 uM after 24 hrs by HPLC analysis. Format: physicochemical.
In data set [2] the test system is Human immunodeficiency virus 1. The experiment in a line: Antiviral activity against HIV-1. It is filed as functional, organism-based.
The nature of data set [3]: Selectivity index, ratio of CC50 for human MT-4 cells to EC50 for HIV-1 infected in MT-4 cells. It is filed as toxicity, cell-based. The conditions noted are these: read-out: Ratio CC50/EC50.
In data set [4] the test system is Human immunodeficiency virus 1. The experiment in a line: Antiviral activity against HIV-1 infected in MT4 cells assessed as reduction in virus-induced cytopathic effect preincubated for 1 hr followed by viral infection and measured after 5 days by XTT assay. Format: functional, organism-based. The settings on record: Human immunodeficiency virus 1, MT4.
Data set [5] concerns the target T1, Lysosomal protective protein (Homo sapiens) (UniProt P10619).
T1 sequence (whole entry): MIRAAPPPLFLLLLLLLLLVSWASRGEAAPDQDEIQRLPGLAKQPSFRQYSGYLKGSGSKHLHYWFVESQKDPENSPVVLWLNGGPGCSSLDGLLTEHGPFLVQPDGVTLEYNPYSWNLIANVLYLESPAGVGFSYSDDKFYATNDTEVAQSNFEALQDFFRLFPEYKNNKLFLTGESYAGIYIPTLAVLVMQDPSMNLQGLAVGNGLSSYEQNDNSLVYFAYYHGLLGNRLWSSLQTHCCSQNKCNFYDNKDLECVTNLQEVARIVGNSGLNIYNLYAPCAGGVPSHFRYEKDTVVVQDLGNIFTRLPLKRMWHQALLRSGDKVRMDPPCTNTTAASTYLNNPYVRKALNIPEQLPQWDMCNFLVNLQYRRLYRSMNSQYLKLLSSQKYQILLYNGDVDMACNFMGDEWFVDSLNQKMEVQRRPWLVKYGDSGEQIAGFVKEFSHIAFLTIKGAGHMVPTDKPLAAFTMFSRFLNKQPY
The experiment in a line: Substrate activity at cathepsin A (unknown origin) at 30 uM after 30 mins.

Data set [6] in a line: Cytotoxicity against in human MT4 cells after 5 days by XTT assay. It is filed as cell-based. The settings on record: time 5 day.
Data set [7] in a line: Stability of compound in pooled human hepatic microsomes assessed as compound remaining at 5 uM measured upto 30 mins in presence of NADPH by ECHO-MS analysis. Format: ADME, Microsome. The settings on record: pooled liver microsomes, read-out: Stability. A general note: Liver microsomes are a subcellular fraction often used to study metabolism.
The nature of data set [8]: Drug uptake in human CCRF-CEM cells assessed as released tenofovir level at 50 uM after 45 mins by ECHO-MS analysis. It is filed as ADME, cell-based. The settings on record: 0.75 h.
Data set [9] can be described thus: Drug uptake in human CCRF-CEM cells assessed as intracellular intact prodrug level at 50 uM after 45 mins by ECHO-MS analysis. Format: ADME, cell-based. The settings on record: 0.75 h.
A short description of data set [10]: Stability of compound in pooled human plasma assessed as half life at 5 uM measured for 120 to 240 mins by ECHO-MS analysis. Format: ADME, cell-free. The settings on record: time 120-240 min.
Data set [11] in a line: Stability of compound in pooled human plasma assessed as compound remaining at 5 uM measured for 120 to 240 mins by ECHO-MS analysis. It is filed as ADME, cell-free. The settings on record: time 120-240 min, read-out: Stability.
Data set [12] can be described thus: Drug metabolism assessed as M12 metabolite formation. It is filed as ADME.
The nature of data set [13]: Drug metabolism assessed as M9 metabolite formation. Format: ADME.
Data set [14] is described as follows: Drug metabolism assessed as M1 metabolite formation. Format: ADME.
Data set [15] in a line: Drug metabolism assessed as M5 metabolite formation. It is filed as ADME.
A short description of data set [16]: Drug metabolism assessed as M11 metabolite formation. Format: ADME.
A short description of data set [17]: Chemical stability of compound in pH 1.5 NaCl-HCl buffer at 25 uM after 24 hrs by HPLC analysis. Format: physicochemical. The settings on record: pH 1.5, 24 h.
Data set [18] in a line: Chemical stability of compound in pH 4.5 citrate buffer at 25 uM after 24 hrs by HPLC analysis. The conditions noted are these: pH 4.5, 24 h. Format: physicochemical.
A short description of data set [19]: Chemical stability of compound in pH 10 NaOH-glycin buffer at 25 uM after 24 hrs by HPLC analysis. Format: physicochemical. The conditions noted are these: pH 10, 24 h.
Data set [20] is described as follows: Drug metabolism in human liver microsomes assessed as formation of metabolite 1. It is filed as ADME, Microsome.
Data set [21] in a line: Cytotoxicity against human HepG2-hNTCP cells incubated for 3 days by XTT assay. Format: cell-based. The conditions noted are these: time 3 day. For orientation: Formazan colour is commonly taken as a measure of viable cells.
The test system of data set [22] is Hepatitis B virus. The experiment in a line: Antiviral activity against HBV infected in human HepG2-hNTCP cells assessed as reduction in HBV DNA incubated for day 1 followed by compound washout and fresh compound addition on following day and day 3, 6 and 10 measured on day 14 post infection by qPCR analysis. It is filed as functional, organism-based.

Consider nine compounds from ChEMBL document CHEMBL4840358, “Discovery of Modified Amidate (ProTide) Prodrugs of Tenofovir with Enhanced Antiviral Properties” (J Med Chem, 2021).

Converted amounts (≈) assume the structure as drawn. Where a name gives a salt, the structure may show the parent alone.

For the compound `CC(C)OC(=O)[C@H](C)N[P@](=O)(CO[C@H](C)Cn1cnc2c(N)ncnc21)Oc1ccc(C[C@H](NC(=O)OCc2ccccc2)C(=O)OC2CCCC2)cc1.O=C(O)/C=C/C(=O)O`, the solubility (in general, how much of the substance goes into solution per volume) at 24 h, 25 µM in [1] was determined as 104 µM.
As to `CC(C)OC(=O)OCOP(=O)(CO[C@H](C)Cn1cnc2c(N)ncnc21)OCOC(=O)OC(C)C` [TENOFOVIR DISOPROXIL FUMARATE], the 50% effective concentration (EC50) – broadly, the concentration needed to bring the measured effect to its halfway point – in [2] was found to be 50 nM. Further, in [3], the selectivity ratio worked out at 656.
In the case of `CC(C)OC(=O)[C@H](C)N[P@@](=O)(CO[C@H](C)Cn1cnc2c(N)ncnc21)Oc1ccc(C[C@H](NC(=O)OCc2ccccc2)C(=O)OC2CCCC2)cc1`, the EC50 in data set [4] is 16 nM. Further, the Activity in [5] amounted to 35.9 pmol/min/mg. In addition, in [6], half-maximal cytotoxicity (CC50 at 120 h) was put at 17000 nM. Further, the remaining at 0.5 h, 5 µM in data set [7] is 0.01%. The Drug uptake in data set [8] amounted to 20.25 pmol; in [9], 0.22 pmol. Moreover, the half-life (as a rule, the time in which the quantity being followed falls by half) at 5 µM in data set [10] came to 4.62 h. The remaining at 5 µM in [11] amounted to 56%.
For `CC(C)OC(=O)[C@H](C)N[P@](=O)(CO[C@H](C)Cn1cnc2c(N)ncnc21)Oc1ccc(C[C@H](NC(=O)OCc2ccccc2)C(=O)OC2CCCC2)cc1.Cl`, the solubility at 24 h, 25 µM in data set [1] came to 210 µM.
The compound `C[C@H](Cn1cnc2c(N)ncnc21)OCP(=O)(O)O` [TENOFOVIR ANHYDROUS] registered an EC50 in data set [2] of 5000 nM. In addition, the selectivity ratio in data set [3] was determined as 36.
Regarding `CC(C)OC(=O)[C@H](C)N[P@@](=O)(CO[C@H](C)Cn1cnc2c(N)ncnc21)Oc1ccc(C[C@H](NCCCc2ccccc2)C(=O)CC2CCCC2)cc1`, the Drug metabolism result in data set [12], in [13], in [14], in [15] and in data set [16] was “Metabolite_Detected” each time. In addition, in data set [4], the EC50 was found to be 9.6 nM. In data set [5], the Activity came to 10.2 pmol/min/mg. For the same compound, the CC50 (as a rule, the concentration at which the toxic effect on the cells reaches its halfway point) at 120 h in data set [6] amounted to 7300 nM. Moreover, the Drug uptake in [8] came out at 50.12 pmol; in data set [9] it was 266.22 pmol.
Turning to `CC(C)OC(=O)[C@H](C)N[P@](=O)(CO[C@H](C)Cn1cnc2c(N)ncnc21)Oc1ccc(C[C@H](NC(=O)OCc2ccccc2)C(=O)OC2CCCC2)cc1`, in [4], the EC50 worked out at 0.07 nM. Moreover, the concentration in solution in [1] (solubility at 24 h, 25 µM) came to 53.5 µM (≈ 41 µg/mL). Further, the CC50 at 120 h in data set [6] was 10000 nM. Besides, in data set [7], the remaining at 0.5 h, 5 µM was 0.01%. Also, the values for the Drug uptake in data set [8] and in data set [9] were 73.7 pmol and 0.19 pmol, respectively. The Stability entry was “Unstable” in data set [17], “Stable” in data set [18] and “Unstable” in data set [19]. Further, in [10], the half-life at 5 µM was 9.63 h. The remaining at 5 µM in [11] worked out at 75%. Also, the selectivity ratio in data set [3] is 143000. Also, the Drug metabolism entry in [20] is recorded as “Metabolite_Detected”.
With `CC(C)OC(=O)[C@H](C)N[P@](=O)(CO[C@H](C)Cn1cnc2c(N)ncnc21)Oc1ccccc1.CC(C)OC(=O)[C@H](C)N[P@](=O)(CO[C@H](C)Cn1cnc2c(N)ncnc21)Oc1ccccc1.O=C(O)/C=C/C(=O)O` [TENOFOVIR ALAFENAMIDE FUMARATE], the values for the concentration for a half-maximal effect (EC50) in [4], in [2] and in data set [22] were 6.4 nM, 5 nM and 5.3 nM, respectively. This compound also returned a solubility at 24 h, 25 µM in data set [1] of over 1000 µM. In data set [21], the CC50 at 72 h was over 50000 nM. The compound further came in with an Activity in data set [5] of 25.8 pmol/min/mg. This compound also displayed a CC50 at 120 h in data set [6] of 35000 nM. Also, in [7], the remaining at 0.5 h, 5 µM came to 70%. The Drug uptake is on record as 21.19 pmol in [8] and 0.3 pmol in [9]. In addition, the half-life at 5 µM in [10] was determined as 3.45 h. In data set [11], the remaining at 5 µM is 44%. For the same compound, the selectivity ratio in data set [3] was 5470.
`CC(C)OC(=O)[C@H](C)N[P@](=O)(CO[C@H](C)Cn1cnc2c(N)ncnc21)Oc1ccc(C[C@H](NC(=O)OCc2ccccc2)C(=O)CC2CCCC2)cc1`: the EC50 in data set [4] is 0.006 nM; in data set [22], 2.8 nM. The compound also gave a CC50 at 72 h in data set [21] of over 50000 nM. The compound also came in with an Activity in data set [5] of 39.7 pmol/min/mg. The same compound yielded a CC50 at 120 h in data set [6] of 9200 nM. Moreover, the remaining at 0.5 h, 5 µM in data set [7] is 0.04%. Besides, the Drug uptake in data set [8] stood at 148.09 pmol; in data set [9], 102.36 pmol. For the same compound, the remaining at 5 µM in data set [11] was determined as 88%. For the same compound, the selectivity ratio in data set [3] amounted to 1.53e+06.
